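In this assay, cells in 96-well plates receive the compound at five concentrations for 48 hours. Endpoints are linearly interpolated between the surrounding concentrations. The concentration for 50% growth inhibition is given as GI50.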 Activity calls are given as the source filed them. Cut-off read from the data, not from the text of the source: active = GI50 up to about 1.1 µM and inactive = higher.
Legend:
Experiment in all cases: NCI anticancer screen, dose series, 48 h
[1] = system: A549
[2] = system: ACHN
[3] = system: CAKI-1
[4] = system: DU-145
[5] = system: HCT-116
[6] = system: HCT-15
[7] = system: HOP-92
[8] = system: HT-29
[9] = system: IGROV-1
[10] = system: MDA-MB-231
[11] = system: MDA-MB-435
[12] = system: NCI-H226
[13] = system: NCI-H23
[14] = system: PC-3
[15] = system: RXF 393
[16] = system: SF-268
[17] = system: UACC-62
[18] = system: Hs-578T

Row | SMILES | GI50 [1] | GI50 [2] | GI50 [3] | GI50 [4] | GI50 [5] | GI50 [6] | GI50 [7] | GI50 [8] | GI50 [9] | GI50 [10] | GI50 [11] | GI50 [12] | GI50 [13] | GI50 [14] | GI50 [15] | GI50 [16] | GI50 [17] | GI50 [18]
1 | Cc1ccc(NC(=S)C#N)cc1Cl | 23.8 µM (inactive) | 37.7 µM (inactive) | 41.3 µM (inactive) | 68.9 µM (inactive) | 36.6 µM (inactive) | 23.3 µM | 13.4 µM (inactive) | 30.1 µM (inactive) | 17.1 µM (inactive) | 88.3 µM (inactive) | 41.8 µM (inactive) | 24.3 µM (inactive) | 33.8 µM (inactive) | 43.4 µM (inactive) | 29.4 µM (inactive) | 36.9 µM (inactive) | 37.9 µM (inactive) | 
2 | COc1cc(-c2nn3c(=O)n(-c4ccc(Cl)cc4)c(=O)nc3s2)cc(OC)c1OC | 41 µM (inactive) | 16.3 µM (inactive) | 18.2 µM (inactive) |  | 33.7 µM (inactive) | > 88.3 µM | 15.5 µM (inactive) | > 100 µM (inactive) | > 89.1 µM (inactive) |  |  | > 55.7 µM (inactive) | 37.6 µM (inactive) |  | 8.87 µM (inactive) | > 50 µM (inactive) | > 50 µM (inactive) | 
3 | COC(=O)c1c(O)ccc2c1c1c(n2Cc2ccc(OC)cc2)C(=O)c2ccccc2C1 | 45.9 µM (inactive) |  | 20.6 µM (inactive) | > 100 µM (inactive) | 60.4 µM (inactive) | 52.1 µM |  | 21.7 µM (inactive) | 21.6 µM (inactive) | 32.4 µM (inactive) | 45.7 µM (inactive) | > 100 µM (inactive) | 63.4 µM (inactive) | 18.5 µM (inactive) | 20.3 µM (inactive) | 30.3 µM (inactive) | > 100 µM (inactive) | > 100 µM (inactive)
4 | CC(C)(C)[Si](C)(C)OCC1OC(n2cnc3c(N)ncnc32)C(O)C1O (stereo not given) | > 100 µM (inactive) | > 100 µM (inactive) | > 100 µM (inactive) | > 100 µM (inactive) | > 100 µM (inactive) | > 100 µM |  | > 100 µM (inactive) | > 100 µM (inactive) | 96.4 µM (inactive) | > 100 µM (inactive) | > 100 µM (inactive) | 71 µM (inactive) | 43.5 µM (inactive) | 36.7 µM (inactive) | > 100 µM (inactive) | 22.1 µM (inactive) | 44.5 µM (inactive)
5 | N#Cc1ccc2oc3ccc(C#N)cc3c(=O)c2c1 | 23 µM (inactive) | > 100 µM (inactive) | > 100 µM (inactive) | 30.8 µM (inactive) | 29 µM (inactive) | > 100 µM | 41 µM (inactive) | 20.2 µM (inactive) | 32 µM (inactive) | > 100 µM (inactive) | 34.4 µM (inactive) | 35.9 µM (inactive) | 21.3 µM (inactive) | 24.7 µM (inactive) | 18.3 µM (inactive) | 35.9 µM (inactive) | 19 µM (inactive) | 
6 | CC(=O)c1ccc(N2CCN(C3=CC(=O)c4c(O)ccc(O)c4C3=O)CC2)cc1 | 19 µM (inactive) |  | > 100 µM (inactive) | > 100 µM (inactive) | 7.57 µM (inactive) | 5.41 µM | 25.8 µM (inactive) | 30.2 µM (inactive) | 45.9 µM (inactive) | 13.4 µM (inactive) |  |  | 34 µM (inactive) | 66.1 µM (inactive) | 47.8 µM (inactive) | 33 µM (inactive) | 31.4 µM (inactive) | 
7 | CNc1ncnc2c1nc(NC1CCCC1)n2C1OC(CO)C(O)C1O (stereo not given) | > 100 µM (inactive) | > 100 µM (inactive) | > 100 µM (inactive) | > 100 µM (inactive) | > 100 µM (inactive) | > 100 µM | > 100 µM (inactive) | > 100 µM (inactive) |  | > 100 µM (inactive) | > 100 µM (inactive) |  | > 100 µM (inactive) | > 100 µM (inactive) | > 100 µM (inactive) | > 100 µM (inactive) | > 100 µM (inactive) | 
8 | NC(=O)CC[C@H]1C(=O)N=C(N)N1C(=O)OCc1ccccc1 |  | > 100 µM (inactive) | > 100 µM (inactive) | > 100 µM (inactive) | > 100 µM (inactive) | > 100 µM |  | > 100 µM (inactive) | > 100 µM (inactive) | > 100 µM (inactive) | > 100 µM (inactive) | > 100 µM (inactive) | > 100 µM (inactive) | > 100 µM (inactive) | > 100 µM (inactive) | > 100 µM (inactive) | > 100 µM (inactive) | > 100 µM (inactive)
9 | C=C1CC[C@H]2C(C)=CC[C@H]3C(=C)C(=O)O[C@@H]3[C@@H]12 [EREMANTHIN] | > 100 µM (inactive) | > 100 µM (inactive) | > 100 µM (inactive) | > 100 µM (inactive) | > 100 µM (inactive) | > 100 µM | > 100 µM (inactive) | > 100 µM (inactive) | > 100 µM (inactive) | > 100 µM (inactive) | > 100 µM (inactive) | > 100 µM (inactive) | > 100 µM (inactive) | > 100 µM (inactive) |  |  | > 100 µM (inactive) | 

Reference: ChEMBL document CHEMBL1201862, “PubChem BioAssay data set” (2004)
